The values that follow come from patent US11274106B2, “Topoisomerase inhibitors with antibacterial and anticancer activity” (THE BOARD OF TRUSTEES OF THE UNIVERSITY OF ILLINOIS, priority 2017, dated 2022).

Test [1] concerns MDA-MB-231 triple negative breast cancer cells. The test is described as follows: Antiproliferative SRB assay, MDA-MB-231. It counts as cell-based. Conditions: for IC50: SRB assay, mean ± SEM. Here is the method: FIG. 1. […] Cell death measured by SRB assay after 72 hour of compound exposure (n≥3 biological replicates, error bars show SEM). IC50 values given as mean±SEM from ≥3 biological replicates.
To investigate the feasibility of developing a class of antitumor antibiotics based upon the DNM scaffold, the ability of the DNM to exert an antiproliferative effect against MDA-MB-231 breast cancer cells was evaluated.

For another test, the target named is T1, Top1cc (Homo sapiens, UniProt P11387).
T1 construct: endogenous in cells; host or cells: H460
T1 sequence (P11387 2-765 limits assumed): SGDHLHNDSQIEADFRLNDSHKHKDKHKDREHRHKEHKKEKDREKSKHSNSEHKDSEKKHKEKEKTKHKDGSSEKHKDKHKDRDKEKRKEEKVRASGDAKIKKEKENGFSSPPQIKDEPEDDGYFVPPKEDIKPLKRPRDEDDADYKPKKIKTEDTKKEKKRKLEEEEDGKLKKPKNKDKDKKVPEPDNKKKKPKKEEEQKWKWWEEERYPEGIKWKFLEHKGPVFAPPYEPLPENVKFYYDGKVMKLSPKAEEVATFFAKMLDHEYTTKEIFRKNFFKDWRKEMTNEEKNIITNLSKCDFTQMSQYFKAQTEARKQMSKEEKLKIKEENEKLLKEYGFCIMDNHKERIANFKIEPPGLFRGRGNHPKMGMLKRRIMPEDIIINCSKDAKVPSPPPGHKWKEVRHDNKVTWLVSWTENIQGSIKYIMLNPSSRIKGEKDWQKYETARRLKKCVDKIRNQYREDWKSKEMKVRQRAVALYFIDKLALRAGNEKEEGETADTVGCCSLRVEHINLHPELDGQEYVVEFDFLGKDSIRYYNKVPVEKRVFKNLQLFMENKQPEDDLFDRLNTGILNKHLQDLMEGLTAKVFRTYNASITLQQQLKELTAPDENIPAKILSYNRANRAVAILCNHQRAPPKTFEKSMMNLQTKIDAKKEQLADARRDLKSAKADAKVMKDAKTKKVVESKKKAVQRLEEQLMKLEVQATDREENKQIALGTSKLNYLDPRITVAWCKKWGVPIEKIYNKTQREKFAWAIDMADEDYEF
As to the kind of experiment: ICE assay for Top1-DNA adducts in H460 cells. Format: cell-based. The following applies: for Accumulation of Top1cc (ICE assay): H460 cells, 50 μM, 30 min; for Mode of topoisomerase inhibition: in vitro and cell culture experiments taken together. From the text:
FIG. 3. DNM derivatives are dual Top1/Top2 inhibitors with different modes of inhibition. (a) Inhibition of decatenating ability of Top2α with increasing concentrations of ETP, 6DNM-NH3, 6DNM-Pyr, and Ph-6DNM-NH3. K, kinetoplast DNA; OC, open circular; R, relaxed. (b) Inhibition of relaxing ability of Top1 with increasing concentrations of CPT, 6DNM-NH3, 6DNM-Pyr, and Ph-6DNM-NH3. R, relaxed; S, supercoiled. (c) Detection of Top2a-DNA using the ICE Assay. Genomic DNA ([…]) of H460 cells treated with drugs (50 μM, 30 min) was applied to nitrocellulose membrane and immunoblotted for Top2a. (d) Detection of Top1-DNA adducts using ICE Assay. Same procedure as (c) using 1 μg of DNA. (e) Inhibition of ETP-induced poisoning of Top2a. H460 cells treated with indicated concentrations of inhibitor for 30 min prior to treatment with ETP (50 μM). Detection of Top2α as in (c).
The in vivo complex of enzyme (ICE) assay can be used to distinguish poisons from catalytic inhibitors. The ICE assay consists of isolating the genomic DNA of cells treated with small molecules in a manner the preserves covalent DNA-protein complexes and applying it to nitrocellulose membranes. Because topoisomerase poisons stabilize the cleavage complexes, DNA-protein complexes can be detected by immunoblotting for specific topoisomerases, whereas catalytic inhibitors produce no such result. To determine if DNM derivatives are acting as poisons or catalytic inhibitors, H460 human lung cells were exposed to 50 μM of the Top2 poison ETP, Ph-6DNM-NH3, 6DNM-NH3, and 6DNM-Pyr and assessed for their ability to stabilize Top2cc. […] In a similar fashion, next investigated was the mode of Top1 inhibition using the ICE assay (FIG. 3b).

The next test has as its system MRSA. As to the kind of experiment: Antibacterial MIC, microbroth dilution, MRSA. Format: cell-based, S. aureus. The following applies: Staphylococcus aureus, MRSA; microbroth dilution. Here is the method:
To investigate this possibility, the antibacterial effects of the DNM derivatives was assessed against strains of E. coli, S. aureus, and MRSA using the microbroth dilution method (Table 2).

The target of another test is E. coli DNA Gyrase (Escherichia coli, UniProt P0AES4+P0AES6). As to the kind of experiment: E. coli DNA Gyrase supercoiling assay. It counts as biochemical. From the text:
(§1) FIG. 8. In vitro inhibitory activity of 6DNM-NH3, Ph-6DNM-NH3 against E. coli DNA gyrase and TopoIV.
(§2) DNM and its derivatives exert their antibacterial effects through inhibition of the DNA Gyrase.

A further test addresses E. coli TopoIV (Escherichia coli, UniProt P0AFI2+P20083). The test is described as follows: E. coli TopoIV decatenation assay. It counts as biochemical.
Text: as §1, §2

Setting [2] is: Homo sapiens, MDA-MB-231, 72 h, Breast cancer, read-out: 72 hour IC50, MDA-MB-231.

Converted amounts (≈) assume the structure as drawn. Like-named read-outs stand apart in the source and are kept apart here.

Sequence of E. coli TopoIV (P0AFI2 whole entry): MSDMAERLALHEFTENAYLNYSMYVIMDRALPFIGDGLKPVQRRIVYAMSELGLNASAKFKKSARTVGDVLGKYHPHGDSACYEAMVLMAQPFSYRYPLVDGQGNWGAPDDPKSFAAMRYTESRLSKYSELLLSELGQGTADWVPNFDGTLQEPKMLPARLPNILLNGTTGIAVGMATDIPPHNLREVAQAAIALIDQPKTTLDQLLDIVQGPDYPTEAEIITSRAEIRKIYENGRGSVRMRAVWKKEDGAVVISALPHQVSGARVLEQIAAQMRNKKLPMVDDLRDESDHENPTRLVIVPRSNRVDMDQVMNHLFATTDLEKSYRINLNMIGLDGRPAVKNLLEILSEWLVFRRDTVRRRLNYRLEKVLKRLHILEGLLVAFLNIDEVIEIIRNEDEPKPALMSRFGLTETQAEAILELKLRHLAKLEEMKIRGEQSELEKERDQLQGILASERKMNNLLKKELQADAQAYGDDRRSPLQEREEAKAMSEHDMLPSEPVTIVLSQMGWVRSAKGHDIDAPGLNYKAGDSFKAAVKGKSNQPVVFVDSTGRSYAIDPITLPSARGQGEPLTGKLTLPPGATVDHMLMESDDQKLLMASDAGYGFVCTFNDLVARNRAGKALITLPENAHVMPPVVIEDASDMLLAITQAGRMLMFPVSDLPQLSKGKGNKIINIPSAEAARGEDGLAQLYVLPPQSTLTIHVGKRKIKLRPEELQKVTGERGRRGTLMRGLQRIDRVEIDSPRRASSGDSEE
Sequence of E. coli TopoIV (P20083 whole entry): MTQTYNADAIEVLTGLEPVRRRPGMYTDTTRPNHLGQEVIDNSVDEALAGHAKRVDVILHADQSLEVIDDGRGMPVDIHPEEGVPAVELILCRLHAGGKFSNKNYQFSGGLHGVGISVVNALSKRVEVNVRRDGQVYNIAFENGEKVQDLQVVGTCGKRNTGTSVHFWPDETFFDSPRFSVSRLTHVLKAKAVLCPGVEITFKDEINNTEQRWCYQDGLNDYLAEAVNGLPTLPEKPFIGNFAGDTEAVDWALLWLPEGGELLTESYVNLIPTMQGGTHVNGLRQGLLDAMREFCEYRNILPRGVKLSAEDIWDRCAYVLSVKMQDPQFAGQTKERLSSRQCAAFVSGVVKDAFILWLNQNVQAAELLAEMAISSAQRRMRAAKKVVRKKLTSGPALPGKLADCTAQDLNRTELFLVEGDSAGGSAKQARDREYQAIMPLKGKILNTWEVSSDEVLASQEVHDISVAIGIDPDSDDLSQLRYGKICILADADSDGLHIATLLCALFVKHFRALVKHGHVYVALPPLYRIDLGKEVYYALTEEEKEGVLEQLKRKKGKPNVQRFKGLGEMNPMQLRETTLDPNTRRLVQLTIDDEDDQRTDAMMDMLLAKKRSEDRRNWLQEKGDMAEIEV
Sequence of E. coli DNA Gyrase (P0AES4 whole entry, one chain of several): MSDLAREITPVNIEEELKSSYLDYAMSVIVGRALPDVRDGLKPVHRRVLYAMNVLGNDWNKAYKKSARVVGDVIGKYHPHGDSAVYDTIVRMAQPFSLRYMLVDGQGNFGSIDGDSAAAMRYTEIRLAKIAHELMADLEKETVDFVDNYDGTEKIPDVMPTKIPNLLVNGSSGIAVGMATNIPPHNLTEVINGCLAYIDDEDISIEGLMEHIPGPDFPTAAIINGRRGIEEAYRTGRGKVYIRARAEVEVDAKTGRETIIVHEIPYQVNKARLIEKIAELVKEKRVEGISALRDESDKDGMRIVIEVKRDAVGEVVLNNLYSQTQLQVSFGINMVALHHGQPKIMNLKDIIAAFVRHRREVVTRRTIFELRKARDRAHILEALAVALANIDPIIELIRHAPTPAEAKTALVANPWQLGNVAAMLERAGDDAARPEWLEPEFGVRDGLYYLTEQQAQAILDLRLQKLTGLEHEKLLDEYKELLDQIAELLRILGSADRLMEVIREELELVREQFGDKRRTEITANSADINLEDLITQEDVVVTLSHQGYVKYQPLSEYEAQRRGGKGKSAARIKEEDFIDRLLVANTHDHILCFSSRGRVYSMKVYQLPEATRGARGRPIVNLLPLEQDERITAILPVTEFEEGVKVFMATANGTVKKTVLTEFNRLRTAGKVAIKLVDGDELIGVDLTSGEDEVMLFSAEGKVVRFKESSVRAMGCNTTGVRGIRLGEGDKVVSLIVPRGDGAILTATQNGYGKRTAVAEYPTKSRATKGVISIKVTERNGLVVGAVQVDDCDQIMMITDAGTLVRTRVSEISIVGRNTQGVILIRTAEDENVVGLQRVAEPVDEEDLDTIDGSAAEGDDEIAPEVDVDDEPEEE

As to `Cc1cc(=O)n(C)c2c3c4c(cc12)c(C)cc(=O)n4C(CN1CCCC1)CO3` (stereo not drawn) [Compound 20], the IC50 in test [1] (setting [2]) is 14 ± 1 nM. Also, the concentration for half-maximal inhibition (IC50) in test [1] (Homo sapiens, MDA-MB-231, 72 h, 72 hour compound exposure, read-out: MDA-MB-231 IC50) was determined as 14 ± 1 nM. Besides, at Top1cc, the “Accumulation of Top1cc (ICE assay)” value is on record as “neither 6DNM-NH3 nor 6DNM-Pyr, leads to the accumulation of Top1cc” and the “Mode of topoisomerase inhibition” value is “dual Top1/Top2α catalytic inhibitors”.

In the case of `Cc1cc(=O)n2c3c(c4c(cc13)c1ccccc1c(=O)n4C)OCC2CN` (stereo not drawn) [Compound 15], the half-inhibitory concentration (IC50) in test [1] (setting [2]) was 30 ± 6 nM; in test [1] (72 hour compound exposure, read-out: MDA-MB-231 IC50), 48 ± 8 nM. For the same compound, the “Improvement in potency relative to 6DNM-NH3” value in test [1] (MDA-MB-231, Table 1) was determined as 4.5 fold. Further, the MIC in the test on MRSA amounted to 1 µg/mL (≈ 2.77 µM). In addition, on E. coli DNA Gyrase, the “Inhibition of purified E. coli DNA Gyrase” value is on record as “able to inhibit”. Besides, at E. coli TopoIV, the “Inhibition of purified E. coli TopoIV” value is “able to inhibit”. Further, at Top1cc, the “Accumulation of Top1cc (ICE assay)” value is listed as “leads to the accumulation of Top1cc”. Moreover, the “Mode of topoisomerase inhibition” value at Top1cc was “Top1 poison/Top2α catalytic inhibitor”.
